This is an account of results in patent publication US11072601B2, “μ-opioid receptor agonist and preparation method therefor and use thereof in field of medicine” (SHANGHAI SYNERGY PHARMACEUTICAL SCIENCES CO., LTD., priority 2017, dated 2021).

In one series the target is T1, μ opioid receptor (MOR) (Homo sapiens, UniProt P35372).
T1 construct: host or cells: HEK293
Nature of the series: cell-based. Conditions: HEK293 stably expressing μ opioid receptor, FLIPR calcium. How it is done: The purpose of the experiment was to test the agonistic effects of the compounds of the present invention on μ opioid receptor (MOR), κ opioid receptor (KOR) and δ opioid receptor (DOR), and to evaluate in vitro activity of the compounds according to the half-maximal effect concentration (EC50).
This test was performed using HEK293 cell lines (the stably expressed cell lines were provided by WuXi AppTec) which stably expressed μ opioid receptor, δ opioid receptor or κ opioid receptor respectively. […] The cells were centrifuged at 1000 rpm for 5 minutes at room temperature to precipitate. The supernatant was sucked out, be careful not to suck out cells. The precipitate was flicked into the loose cells and resuspend in 45 ml DMEM medium. The Vi-CELL XR automatic cell viability detector (BECKMAN COULTER) was used to count the cells, and the cell concentration was adjusted to 10×10^5 cells/ml based on the counting results.
Preparation of probenecid mother solution: 1 ml of FLIPR test solution was added to 77 mg probenecid to prepare a 250 mM solution. The solution was freshly prepared just before use.
The solution was freshly prepared just before use.
The cell plate prepared above was removed from the incubator and 20 ul 2× Fluo-4 Direct™ buffer was added thereto. The final volume in the cell plate was […]. The plate was incubated at 37° C., under 5% CO2 for 50 minutes, and incubated at room temperature for 10 minutes, then was placed into the FLIPR instrument (MD), and the compound plate and pipette box was placed into. The protocol was run on the […] platform, 10 μl of positive drug or the test compound was transfered to the cell plate from the compound plate, and the fluorescent signal was read.
The signal value generated by each well was calculated, and the calculation formula was that: the activity %=(signal value of the test compound−signal value of the solvent)/(signal value of the positive drug−signal value of the solvent).

In series [1] the target is T2, cAMP pathway of MOR receptor (Homo sapiens, UniProt P35372).
T2 construct: host or cells: HEK293 (cAMP Hunter cell line)
Nature of the series: cell-based. To be noted: cAMP Hunter HEK293 cells, forskolin-induced cAMP; read-out: EC50 of cAMP levels affected by agonistic effect on MOR. The source says:
The purpose of this experiment was to test the agonistic effect of the compounds of the invention on the cAMP pathway of MOR and to evaluate the in vitro activity of the compounds according to EC50.
In this experiment, HitHunter cAMP Assay EFC technology of DiscoverX was used to measure the cAMP level in cells and monitor the functional status of G-protein coupled receptors (GPCRs).
The amount of signal produced was directly proportional to the amount of cAMP in the cell.
The MOR receptor was bound to the inhibitory Gαi protein, so forskolin (for inducing cAMP signal) was used to induce cAMP expression in the experiment, and the inhibitory effect of the compounds on the above induction was measured.
The cAMP Hunter cell line (HEK293, DiscoverX) was removed from the freezer and expanded according to the Cell Standard Operating Procedure (SOP), 20 μL was collected and inoculated into a 384-well microplate and incubated at 37° C. overnight.
The HitHunter cAMP Assay test kit (DiscoverX, 90-0075sm) was used, the kit contained cAMP buffer, cAMP detection solution, and cAMP working solution A.
The formula was used to calculate the percentage of signal activity per well=100%×(1−(average RLU of the test samples−average RLU of the MAX controls)/(average RLU of the solvent controls−average RLU of the MAX controls)). wherein, the MAX control referred to the fluorescence signal value of the endorphin solution, and the solvent control referred to the fluorescence signal value of DMSO. The DiscoveRx CBIS data analysis workstation (ChemInnovation, CA) was used to perform statistical analysis of the percentage of signal activity and the concentration of the compounds by the agonist formula (comes with the software, universal) to calculate the EC50 value.

Series [2] has as its target T3, β-arrestin signaling pathway of MOR (Homo sapiens, UniProt P35372).
T3 construct: host or cells: HEK293 (PathHunter cell line)
The series is described as follows: cell-based. To be noted: PathHunter HEK293 cells, relative to endorphin MAX control.

Another series has as its system SD rats. The series is described as follows: Respiratory depression in rats, arterial blood gas PCO2. Type of series: in vivo. To be noted: for PCO2, 5 min before administration: arterial blood; for PCO2, 5 min after administration / PCO2, 30 min after administration / PCO2, 60 min after administration / PCO2, 120 min after administration: intravenous single dose 0.3 mg/kg (morphine 24 mg/kg). The text has this:
8-week-old male SD rats weighing 200 g-300 g were used as experimental animals to determine the effect of the compound of Example H05, the compound of Example H08, the compound of Example H10, the compound of Example H16, the compound of Example H17, the compound of Example H18, the compound of Example H21, and the compound of Example H24 on the partial pressure of blood in rats after intravenous administration. The effects of the compounds of the invention on respiratory depression were investigated.
After the rats were acclimatized to the experimental environment for 3 days, each animal was anesthetized with sodium pentobarbital (50-60 mg/kg, ip), and then the right common carotid artery was isolated and the unilateral carotid artery tube-bury surgery was performed (PE60, ID*OD*length as 0.76 mm*1.22 mm*20 cm, buried into the artery 1 cm deep, and the tube was filled with heparin sodium tube sealing solution).

Series [3] in a line: Pharmacokinetic test in rats, intravenous. The format is in vivo. Conditions: male, SD, rat, plasma, intravenous 1 mg/kg; for AUC: read-out: curve area (AUC); for half-life: read-out: half life (T½) (converted); for Cmax: read-out: plasma concentration (Cmax). The text has this: 8-week-old male SD rats weighing 200-300 g were used as experimental animals, and LC/MS/MS method was used to determine the drug concentration in plasma at different times after the administration of the compound of Example H01, the compound of Example H04, the compound of Example H05, the compound of Example H07, the compound of Example H16, the compound of Example H17, the compound of Example H18, the compound of Example H21, and the compound of Example H24. The pharmacokinetic behavior of the compounds of the present invention in rats was studied, and its pharmacokinetic characteristics were evaluated.
A certain amount of the compounds were weighed, and dissolved in ethanol/castor oil/water=10/10/80 to form a uniform solution.
The above compounds were administered intravenously to rats at a dose of 1 mg/kg, and 0.2 ml of blood was collected from the orbit at 0.083, 0.25, 0.5, 1.0, 2.0, 4.0, 6.0, 8.0, 12.0, 24.0 hours before and after administration, and placed in an anticoagulant tube, the plasma was separated by centrifugation at 6,000 rpm for 10 minutes at 4° C., and stored at −80° C.
50 μL of plasma was taken at different times, 150 μL of acetonitrile solution containing internal standard tolbutamide (200 ng/mL) was added, the system was mixed and shaked for 5 minutes, 12000 rpm, centrifuged for 5 minutes, 100 μL of supernatant was removed, and then mixed with 200 μL of water, then the sample was loaded for analysis. The internal standard tolbutamide solid (Aladdin, T129578) powder was dissolved in DMSO to prepare into a 1 mg/mL stock solution. The stock solution was diluted with 100% acetonitrile to obtain a solution of 200 ng/mL as a protein precipitator.
The liquid chromatography system was an LC-20AD UFLC high performance liquid chromatography system (Shimadzu, LC-20AD). The mass spectrometry system was an AB Sciex API4000 triple quadrupole mass spectrometer equipped with an electrospray ionization source (ESI) (Applied Biosystems, Canada). The software used to control the liquid-mass coanalyzer and quantitative analysis was Analyst 1.6 (Applied Biosystems, Canada), and the pharmacokinetic parameters were analyzed using WinNonlin (version 5.2, Pharsight, Mountain View, Calif.) non-compartment model.
Liquid chromatographic separation was performed using AQ-C18 column (50×2.1 mm, internal diameter of […]). The column temperature was maintained at room temperature.
The compound to be tested was dissolved in DMSO to prepare a stock solution with a concentration of 1 mg/mL, and diluted with 70% acetonitrile to obtain a series of standard working solutions with concentrations of 30, 10, 3, 1, 0.3, 0.1, 0.03, and 0.01. μg/mL, and a series of standard quality control solutions (24, 8 and 0.03 μg/mL). 5 μL of standard solution and 45 μL of blank plasma matrix were mixed uniformity to obtain standard solutions (3000, 1000, 300, 100, 30, 10, 3, and 1 ng/mL) and quality control standards (plasma samples: 2400, 800, 80, and 3 ng/mL) at each concentration point of the standard curve.

T2 sequence (P35372 whole entry): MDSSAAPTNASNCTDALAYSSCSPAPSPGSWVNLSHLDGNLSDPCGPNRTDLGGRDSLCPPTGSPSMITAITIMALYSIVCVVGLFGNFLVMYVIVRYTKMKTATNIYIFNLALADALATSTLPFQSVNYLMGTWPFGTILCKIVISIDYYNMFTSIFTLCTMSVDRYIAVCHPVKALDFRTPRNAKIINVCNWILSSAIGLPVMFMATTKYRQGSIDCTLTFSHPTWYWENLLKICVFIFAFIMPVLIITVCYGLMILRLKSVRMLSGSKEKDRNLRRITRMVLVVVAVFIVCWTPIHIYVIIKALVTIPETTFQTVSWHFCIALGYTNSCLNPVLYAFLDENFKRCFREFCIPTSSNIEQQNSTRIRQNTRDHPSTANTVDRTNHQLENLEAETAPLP
T1 sequence (P35372 whole entry, species assumed): as the sequence (P35372 whole entry) above
T3 sequence (P35372 whole entry): as above

Broadly, the EC50 is the concentration at which the effect is half-maximal. As a reminder, the Emax is the maximal effect, on the per cent scale that the assay sets. On to `Cc1ccc(CNCCC2(c3ccccn3)CCOC3(CCCC3)C2)c(C)c1` (stereo not shown) [Example H08, (2,4-dimethylbenzyl)-[2-(9-(pyridin-2-yl)-6-oxaspiro[4.5]decan-9-yl)ethyl]amine], for which, on μ opioid receptor (MOR), the EC50 is 3.42 nM. Moreover, in series [1], the EC50 came to 4.77 nM. Further, the maximum response (Emax) in series [2] is 3.8%. In addition, in the series on SD rats, the “PCO2, 5 min before administration” value came out at 33.77 ± 0.88 mmHg; the “PCO2, 5 min after administration” value was found to be 35.48 ± 1.54 mmHg; the “PCO2, 30 min after administration” value turned out to be 34.03 ± 0.69 mmHg; the “PCO2, 60 min after administration” value stood at 34.27 ± 1.4 mmHg. Moreover, the “PCO2, 120 min after administration” value in the series on SD rats came to 34.83 ± 1.15 mmHg.

As a reminder, the AUC is concentration integrated over time. As a reminder, the half-life is how long it takes for the measured level to halve. For `Cc1ccc(CNCCC2(c3ccccn3)CCOC3(CCCC3)C2)cc1C` (stereo not shown) [Example H07, (3,4-dimethylbenzyl)-[2-(9-(pyridin-2-yl)-6-oxaspiro[4.5]decan-9-yl)ethyl]amine], on μ opioid receptor (MOR), the EC50 was 3.15 nM. Also, in series [1], the concentration for a half-maximal effect (EC50) is 3.08 nM. The Emax in series [2] amounted to 1.55%. In series [3], the AUC amounted to 583 ± 31.8 ng·h/mL, the half-life is 1.25 ± 0.05 h and the Cmax was found to be 483 ± 33.3 ng/mL.

As to `Clc1ccsc1CNCCC1(c2ccccn2)CCOC2(CCCC2)C1` (stereo not shown) [Example H05, ((3-chloro-thiophen-2-yl)methyl)-[2-(9-(pyridin-2-yl)-6-oxaspiro[4.5]decan-9-yl)ethyl]amine], at μ opioid receptor (MOR), the EC50 came out at 7.05 nM. Besides, in series [1], the half-maximal effective concentration (EC50) is 10.2 nM. In series [2], this compound gave an Emax of 0%. Also, in the series on SD rats, the “PCO2, 5 min before administration” value stood at 35.65 ± 0.44 mmHg; the “PCO2, 5 min after administration” value is 36.15 ± 1.93 mmHg; the “PCO2, 30 min after administration” value came to 33.65 ± 0.49 mmHg; the “PCO2, 60 min after administration” value was 34.85 ± 0.43 mmHg. Besides, in the series on SD rats, the “PCO2, 120 min after administration” value stood at 35.7 ± 0.95 mmHg. In addition, in series [3], the AUC came to 336 ± 14.1 ng·h/mL, the half-life was 3.93 ± 0.13 h and the Cmax was found to be 261 ± 21 ng/mL.

As for `FC(F)(F)Oc1cccc(CNCCC2(c3ccccn3)CCOC3(CCCC3)C2)c1` (stereo not shown) [Example H01, (3-trifluoromethoxybenzyl)-[2-(9-(pyridin-2-yl)-6-oxaspiro[4.5]decan-9-yl)ethyl]amine], the half-maximal effective concentration (EC50) on μ opioid receptor (MOR) was found to be 6.71 nM. The EC50 in series [1] stood at 4.93 nM. In series [2], the Emax was found to be 6.26%. In series [3], the area under the curve (AUC) is 295 ± 1 ng·h/mL, the half-life was 1.11 ± 0.24 h and the Cmax turned out to be 202 ± 33.5 ng/mL.

Consider `COc1ccsc1CNCC(C)C1(c2ccccn2)CCOC2(CCCC2)C1` (stereo not shown) [Example H26], for which the half-maximal effective concentration (EC50) at μ opioid receptor (MOR) came out at 1.76 nM; in series [1] it was 6.95 nM. The same compound displayed an Emax in series [2] of 22.6%.

As to `FC(F)(F)Oc1cc(Br)ccc1CNCCC1(c2ccccn2)CCOC2(CCCC2)C1` (stereo not shown) [Example H11, (4-bromo-2-trifluoromethoxybenzyl)-[2-(9-(pyridin-2-yl)-6-oxaspiro[4.5]decan-9-yl)ethyl]amine], the half-maximal effective concentration (EC50) was 2.08 nM at μ opioid receptor (MOR) and 7.31 nM in series [1]. This compound also gave an Emax in series [2] of 2.28%.

As for `N#Cc1cccc(CNCCC2(c3ccccn3)CCOC3(CCCC3)C2)c1OC(F)(F)F` (stereo not shown) [Example H13], the values for the 50% effective concentration (EC50) (on μ opioid receptor (MOR); in series [1]) were 5.16 nM and 9.43 nM, respectively. Besides, in series [2], the Emax was 3.41%.
